Experimental data from patent publication US20120115232A1, “METHOD FOR INDUCING DEGRADATION OF PROTEIN IN MAMMALIAN CELL” (OSAKA UNIVERSITY, priority 2009, published 2012).

System: GFP-aid-NLS marker protein
Test: Induction of degradation of labeled protein of interest in transiently transfected COS1 cells, Western blot with GFP antibody
Assay type: cell-based, monkey
Settings: 500 μM auxin, 5 hours
Method: The EGFP segment of pIRES2-AcGFP1 (Clontech) was removed by treatment with restriction enzymes BstXI and NotI, into which EGFP-IAA17, which was amplified using pMK42 (an EGFP-IAA17-containing plasmid produced by the inventors) as a template and the following primer set, was inserted (the amplified sequence is shown in SEQ ID NO: 13). By this process, EGFP-IAA17 was cloned downstream of IRES. The resulting plasmid was treated with restriction enzymes XhoI and SmaI, and into this site, rice TIR1 tagged with 9Myc at its C terminus was inserted. By this process, the rice TIR1 was inserted between a CMV promoter and IRES, and the resulting plasmid was referred to as pNHK60. The pNHK60 was transferred into the proliferating COS1, CHO, and NIH3T3 cells using Lipofectamine 2000 (Invitrogen) for transient expression. The HEK293 cell shown in FIG. 4 is a HEK293 strain stably expressing pNHK60, which was obtained by transfer of the pNHK60 under the aforementioned conditions and subsequent selection by the addition of G418 to a medium.
In the experiment of transient expression, the cells were cultured in a medium to which 500 μM IAA or NAA was added, and after five hours, the cells were collected, from which extracts were prepared. […] The factors were detected by Western blotting.
The protein thus extracted was separated by SDS-PAGE and then transferred to a nitrocellulose membrane. Using an anti-Myc antibody (mouse monoclonal 9E10) and an anti-GFP antibody (mouse monoclonal 9E1), each kind of protein was detected by Western blotting. […] For migration control, total extracted proteins were detected by Ponceau staining. Since the […] TIR1 gene is tagged with 9Myc, the TIR1 protein can be detected by Western blotting with the aforementioned Myc antibody. Also, EGFP, which is a protein to be degraded in the complex protein, can be detected by Western blotting with the GFP antibody.
In a similar manner to Example 1, the induction of degradation of a labeled protein of interest was compared between the case in which an expression vector having the TIR1 family protein gene from rice linked between a virus promoter and IRES and the chimeric gene expressing a labeled protein of interest linked downstream thereof was transferred (corresponding to A in FIG. 5) and the case in which an expression vector having the chimeric gene expressing a labeled protein of interest linked between a virus promoter and IRES and the TIR1 family protein gene from rice linked downstream thereof was transferred (corresponding to B in FIG. 5). […] After extraction of a protein sample, the expressed GFP-aid-NLS marker protein was detected by Western blotting using the GFP antibody.

[1] = DNA construct A (rice TIR1 between virus promoter and IRES, chimeric gene downstream)
[2] = DNA construct B (chimeric gene between virus promoter and IRES, rice TIR1 downstream)

| SMILES | depletion of expressed GFP-aid-NLS marker protein [1] | depletion of expressed GFP-aid-NLS marker protein [2] |
| --- | --- | --- |
| O=C(O)Cc1c[nH]c2ccccc12 [IAA, indole-3-acetic acid] | efficiently depleted | no outstanding depletion |
| O=C(O)Cc1cccc2ccccc12 [NAA, 1-naphthaleneacetic acid] | efficiently depleted | no outstanding depletion |
